Entries after “also recorded” stand apart in the source; their conditions may differ. Where two headings read alike, the source gives them in different places.
Key:
PC-3 = experiment: NCI SRB screen, PC-3; settings: Homo sapiens, PC-3, 48 h, read-out: GI50 values
RPMI-8226 = experiment: NCI SRB screen, RPMI-8226; settings: Homo sapiens, RPMI-8226, 48 h, read-out: GI50 values
SF-295 = experiment: NCI SRB screen, SF-295; settings: Homo sapiens, SF-295, 48 h, read-out: GI50 values
NCI-H460 = experiment: NCI SRB screen, NCI-H460; settings: Homo sapiens, NCI-H460, 48 h, read-out: GI50 values
T-47D = experiment: NCI SRB screen, T-47D; settings: Homo sapiens, T47D, 48 h, read-out: GI50 values
KM12 = experiment: NCI SRB screen, KM12; settings: Homo sapiens, KM12, 48 h, read-out: GI50 values
[1] = tested on: fifty six human tumor cell lines; experiment: NCI human tumor cell line screen (48 h, SRB), all cell lines; settings: for GI50: Homo sapiens; for anticancer activity (in words): human cancer cell lines of the NCI panel; for Log10 TGI mean graph midpoint (MG_MID): human tumor cell lines, mean over the panel, total growth inhibition; for potency compared with compounds 6f, 6g, 7g and 10f: against all the cell lines tested
K-562 = experiment: NCI SRB screen, K-562; settings: Homo sapiens, K562, 48 h, read-out: GI50 values
RXF 393 = experiment: NCI SRB screen, RXF 393; settings: Homo sapiens, RXF 393, 48 h, read-out: GI50 values
NCI/ADR-RES = experiment: NCI SRB screen, NCI/ADR-RES; settings: Homo sapiens, 48 h, read-out: GI50 values
OVCAR-4 = experiment: NCI SRB screen, OVCAR-4; settings: Homo sapiens, OVCAR-4, 48 h, read-out: GI50 values
786-0 = experiment: NCI SRB screen, 786-0; settings: Homo sapiens, 786-0, 48 h, read-out: GI50 values
NCI-H226 = experiment: NCI SRB screen, NCI-H226; settings: Homo sapiens, NCI-H226, 48 h, read-out: GI50 values
IGROV1 = experiment: NCI SRB screen, IGROV1; settings: Homo sapiens, IGROV-1, 48 h, read-out: GI50 values
MALME-3M = experiment: NCI SRB screen, MALME-3M; settings: Homo sapiens, 48 h, read-out: GI50 values
Melanoma cell lines = experiment: NCI SRB screen, Melanoma panel average; settings: Homo sapiens, 48 h, read-out: Log10 GI50 (converted)
A498 = experiment: NCI SRB screen, A498; settings: Homo sapiens, A498, 48 h, read-out: GI50 values
BT-549 = experiment: NCI SRB screen, BT-549; settings: Homo sapiens, BT-549, 48 h, read-out: GI50 values
A549/ATCC = experiment: NCI SRB screen, A549/ATCC; settings: Homo sapiens, A549, 48 h, read-out: GI50 values
[2] = tested on: Ovarian cancer cell lines; experiment: NCI SRB screen, Ovarian panel average; settings: Homo sapiens, 48 h, read-out: Log10 GI50 (converted)
UO-31 = experiment: NCI SRB screen, UO-31; settings: Homo sapiens, UO-31, 48 h, read-out: GI50 values
SN12C = experiment: NCI SRB screen, SN12C; settings: Homo sapiens, 48 h, read-out: GI50 values
SR = experiment: NCI SRB screen, SR; settings: Homo sapiens, 48 h, read-out: GI50 values
NCI-H522 = experiment: NCI SRB screen, NCI-H522; settings: Homo sapiens, NCI-H522, 48 h, read-out: GI50 values, Non-small cell lung, NCI-H522
CAKI-1 = experiment: NCI SRB screen, CAKI-1; settings: Homo sapiens, CAKI-1, 48 h, read-out: GI50 values
ACHN = experiment: NCI SRB screen, ACHN; settings: Homo sapiens, 48 h, read-out: GI50 values
UACC-257 = experiment: NCI SRB screen, UACC-257; settings: Homo sapiens, UACC-257, 48 h, read-out: GI50 values
MDA-MB-435 = experiment: NCI SRB screen, MDA-MB-435 (Melanoma panel); settings: Homo sapiens, MDA-MB-435, 48 h, read-out: GI50 values
DU-145 = experiment: NCI SRB screen, DU-145; settings: Homo sapiens, DU-145, 48 h, read-out: GI50 values
SW-620 = experiment: NCI SRB screen, SW-620; settings: Homo sapiens, SW-620, 48 h, read-out: GI50 values
SK-MEL-28 = experiment: NCI SRB screen, SK-MEL-28; settings: Homo sapiens, SK-MEL-28, 48 h, read-out: GI50 values
OVCAR-3 = experiment: NCI SRB screen, OVCAR-3; settings: Homo sapiens, OVCAR-3, 48 h, read-out: GI50 values
[3] = read-out: Log10 GI50 mean graph midpoint (MG_MID) (converted)

Row | Structure (SMILES) | GI50 (PC-3) [nM] | GI50 (RPMI-8226) [nM] | GI50 (SF-295) [µM] | GI50 (NCI-H460) [µM] | GI50 (T-47D) [nM] | GI50 (KM12) [nM] | GI50 ([1]; read-out: GI50 value range) [µM] | GI50 [1, 3] [µM] | anticancer activity (in words) [1] | Log10 TGI mean graph midpoint (MG_MID) [1] | GI50 (K-562) [µM] | GI50 (RXF 393) [µM] | GI50 (NCI/ADR-RES) [µM] | GI50 (OVCAR-4) [nM] | GI50 (786-0) [µM] | GI50 (NCI-H226) [nM] | GI50 (IGROV1) [µM] | GI50 (MALME-3M) [nM] | GI50 (Melanoma cell lines) [nM] | GI50 (A498) [nM] | also measured
1 | c1ccc2[nH]c(-c3cc(-c4ccc5c(c4)OCO5)n[nH]3)nc2c1 [6g, 2-(3-(benzo[d][1,3]dioxol-5-yl)-1H-pyrazol-5-yl)-1H-benzo[d]imidazole] | 3640 | 1140 | 3.24 | 4.57 | 3320 | 1750 | 0.34 to 10 | 3.72 | significant anticancer activity; also recorded: pronounced activities | −4.75 | 3.83 | 2.36 | 4.08 | 2160 | 4.58 | 4420 | 3.66 | 2330 | 3020 | 1700 | GI50 (BT-549): 2120 nM; GI50 (A549/ATCC): 4230 nM; GI50 [2]: 4.37 µM; GI50 (UO-31): 3980 nM; GI50 (SN12C): 3.73 µM; GI50 (SR): 3.37 µM; GI50 (NCI-H522): 1980 nM; GI50 (CAKI-1): 2740 nM; GI50 (ACHN): 4.33 µM; GI50 (UACC-257): 6000 nM; GI50 (MDA-MB-435): 3.12 µM; GI50 (DU-145): 7.27 µM; GI50 (SW-620): 5.87 µM; GI50 (SK-MEL-28): 4.85 µM; GI50 (OVCAR-3): 3.21 µM
2 | Fc1ccc2[nH]c(-c3cc(-c4ccc5c(c4)OCO5)n[nH]3)nc2c1 [7g, 2-(3-(benzo[d][1,3]dioxol-5-yl)-1H-pyrazol-5-yl)-5-fluoro-1H-benzo[d]imidazole] | 3780 | 1090 | 4.2 | 6.06 | 3210 | 2960 | 0.34 to 10 | 4.79 | significant anticancer activity; also recorded: pronounced activities | −4.19 | 4.81 | 3.02 | 4.43 | 1370 | 7.13 | 4210 | 3.67 | 2750 | 4570 | 4660 | GI50 (BT-549): 2160 nM; GI50 (A549/ATCC): 3530 nM; GI50 [2]: 6.17 µM; GI50 (UO-31): 2930 nM; GI50 (SN12C): 4.95 µM; GI50 (SR): 4.95 µM; GI50 (NCI-H522): 2560 nM; GI50 (CAKI-1): 2710 nM; GI50 (ACHN): 3.64 µM; GI50 (UACC-257): 1020 nM; GI50 (MDA-MB-435): 5.43 µM; GI50 (DU-145): 8.24 µM; GI50 (SW-620): 9.34 µM; GI50 (SK-MEL-28): 8.87 µM; GI50 (OVCAR-3): 5.32 µM
3 | COc1cc(-c2cc(-c3nc4cc(Cl)c(Cl)cc4[nH]3)[nH]n2)cc(OC)c1OC [10f, 5,6-dichloro-2-(3-(3,4,5-trimethoxyphenyl)-1H-pyrazol-5-yl)-1H-benzo[d]imidazole] | 2200 | 1750 | 3.04 | 3.33 | 1870 | 3560 | 0.34 to 10 | 3.31 | significant anticancer activity; also recorded: pronounced activities | −4.88 | 3.3 | 3.17 | 3.25 | 2210 | 4.09 | 2290 | 3.86 | 2700 | 2820 | 4210 | GI50 (BT-549): 2840 nM; GI50 (A549/ATCC): 2870 nM; GI50 [2]: 4.47 µM; GI50 (UO-31): 2470 nM; GI50 (SN12C): 3.05 µM; GI50 (SR): 3.89 µM; GI50 (NCI-H522): 2020 nM; GI50 (CAKI-1): 3810 nM; GI50 (ACHN): 3.54 µM; GI50 (UACC-257): 3770 nM; GI50 (MDA-MB-435): 3.78 µM; GI50 (DU-145): 4.16 µM; GI50 (SW-620): 4.47 µM; GI50 (SK-MEL-28): 3.07 µM; GI50 (OVCAR-3): 4.05 µM
4 | COc1cc(-c2cc(-c3nc4cc(Cl)ccc4[nH]3)[nH]n2)cc(OC)c1OC [8f, 5-chloro-2-(3-(3,4,5-trimethoxyphenyl)-1H-pyrazol-5-yl)-1H-benzo[d]imidazole] | 2470 | 1650 | 2.35 | 3.65 | 1580 | 3450 | 0.34 to 10 | 3.02 | significant anticancer activity; also recorded: pronounced activities | −4.93 | 3.04 | 3.26 | 3.16 | 1380 | 5.32 | 1880 | 3.42 | 2580 | 2450 | 2100 | potency compared with compounds 6f, 6g, 7g and 10f [1]: more potent; mean graph pattern: profile of activity and selectivity ([1]; various cell lines): an interesting profile of activity and selectivity; GI50 (BT-549): 2540 nM; GI50 (A549/ATCC): 2960 nM; GI50 [2]: 3.55 µM; GI50 (UO-31): 2640 nM; GI50 (SN12C): 3.06 µM; GI50 (SR): 3.32 µM; GI50 (NCI-H522): 1900 nM; GI50 (CAKI-1): 2800 nM; GI50 (ACHN): 2.96 µM; GI50 (UACC-257): 2600 nM; GI50 (MDA-MB-435): 3.3 µM; GI50 (DU-145): 3.27 µM; GI50 (SW-620): 4.99 µM; GI50 (SK-MEL-28): 2.42 µM; GI50 (OVCAR-3): 3.5 µM
5 | COc1ccc2[nH]c(-c3cc(-c4cc(OC)c(OC)c(OC)c4)n[nH]3)nc2c1 [9f, 5-methoxy-2-(3-(3,4,5-trimethoxyphenyl)-1H-pyrazol-5-yl)-1H-benzo[d]imidazole] | 1030 | 640 | 1.62 | 2.64 | 340 | 1700 | 0.34 to 10 | 1.7 | significant anticancer activity; also recorded: pronounced activities | −5.17 | 2.01 | 2.49 | 2.91 | 1240 | 2.92 | 460 | 1.9 | 1740 | 1320 | 2230 | potency compared with compounds 6f, 6g, 7g and 10f [1]: more potent; growth inhibitory activity (in words) ([1]; against breast cancer and leukemia cell lines): potential growth inhibitory activity; GI50 (BT-549): 890 nM; GI50 (A549/ATCC): 1630 nM; GI50 [2]: 2.04 µM; GI50 (UO-31): 1570 nM; GI50 (SN12C): 2.06 µM; GI50 (SR): 1.74 µM; GI50 (NCI-H522): 1210 nM; GI50 (CAKI-1): 1790 nM; GI50 (ACHN): 2.63 µM; GI50 (UACC-257): 1670 nM; GI50 (MDA-MB-435): 1.49 µM; GI50 (DU-145): 2.29 µM; GI50 (SW-620): 2.89 µM; GI50 (SK-MEL-28): 1.9 µM; GI50 (OVCAR-3): 2.05 µM
